Entries after “also recorded” stand apart in the source; their conditions may differ.
How the values were obtained:
[1] = tested on: lean and DIO C57BL/6J mice; assay: Oral glucose tolerance test (OGTT); assay type: in vivo, mouse; details: lean (80 mg/kg) and DIO (60 mg/kg) mice, single i.p. dose 30 min before glucose gavage 3.0 g/kg, vs vehicle
Experimental: (§1) Wild-type lean C57BL/6J and diet-induced obese (DIO) C57BL/6J age-matched male mice were purchased from Jackson Laboratories, and used at ages 14-16, and 24-26 weeks respectively (>20 weeks of high-fat diet for the DIO mice). GCGR^/ mice were bred from heterozygous mice and used between 11 and 17 weeks. […] Blood glucose was measured from tail nicks using AccuCheck (Aviva) meters.
In vivo studies, general information. Wild-type C57BL/6J and diet-induced obese (DIO) C57BL/6J age-matched male adult mice were purchased from Jackson Laboratories. The age range was 13 to 15 weeks for lean mice, and 24 to 26 weeks for DIO mice. All animals were individually housed on a 14-h light, 10-h dark schedule at the Biology Research Infrastructure (BRI), Harvard University. Cage enrichment included cotton bedding and a red plastic hut. […]
Glucose tolerance tests GTT and blood glucose measurements. […] Blood glucose was measured using AccuCheck® meters (Aviva) from blood droplets obtained from a small nick at the tip of the tail, at timepoints −45, 0, 15, 30, 45, 60, 90 and 120 min with reference to the time of glucose injection. The area of the blood glucose response profile curve corresponding to each animal was calculated by the trapezoid method^17, using as reference each individual baseline blood glucose measurement prior to glucose administration (t=0). […]

C57BL/6J mice [2] = assay: Tolerability of inhibitor doses in mice; assay type: in vivo; details: 80 mg/kg lean, 60 mg/kg DIO mice, i.p.
Description: In vivo studies, general information. Wild-type C57BL/6J and diet-induced obese (DIO) C57BL/6J age-matched male adult mice were purchased from Jackson Laboratories. The age range was 13 to 15 weeks for lean mice, and 24 to 26 weeks for DIO mice. All animals were individually housed on a 14-h light, 10-h dark schedule at the Biology Research Infrastructure (BRI), Harvard University. Cage enrichment included cotton bedding and a red plastic hut. Water and food were available ad libitum, consisting respectively of normal chow (Prolab® RHM 3000) or high-fat diet (60 kcal % fat, D12492, Research Diets Inc.). All animal care and experimental procedures were in accordance with the standing committee on the Use of Animals in Research and Teaching at Harvard University, the guidelines and rules established by the Faculty of Arts and Sciences' Institutional Animal Care and Use Committee (IACUC), and the National Institutes of Health Guidelines for the Humane Treatment of Laboratory Animals. Glucagon-receptor knock-out (GCGR^−/−) mice were housed with a 14-h light and 10-h dark schedule and treated in accordance with the guidelines and rules approved by the IACUC at Albert Einstein College of Medicine, NY. Power analysis to determine animal cohort numbers was based on preliminary results and literature precedent, usually requiring between 5 and 8 animals per group. […]

[3] = Liver microsome stability (1 h incubation); assay type: in vitro ADME; details: after 1 h
C57BL/6J mice [4] = assay: Insulin tolerance test, glucagon challenge and amylin challenge; assay type: in vivo, mouse
Experimental: as §1
Insulin Tolerance Test (ITT), Glucagon Challenge (GC) and Amylin Challenge (AC). For hormone challenges animals were fasted individually housed as described above. For ITT the fasting period was 6 h (7 am to 1 pm), and for glucagon and amylin challenges the fasting period was 14 h (8 pm-10 am). Inhibitor or vehicle alone was injected i.p. as previously described, 30 min prior to each hormone challenge. […] Glucagon (Eli Lilly) was injected s.c. 100 μg/kg formulated in 0.5% BSA sterile saline (5 mL/kg). Amylin (Bachem) was injected s.c. 250 μg/kg formulated in sterile saline (5 mL/kg). Blood glucose was measured at timepoints −45, 0, 15, 30, 45, 60 and 75 min with reference to the time of hormone injection, by microsampling from a tail nick as described above. Values are reported as mean±S.E.M. Statistics were performed using a two-tail Student's t-test, and significance levels shown in the figures are *p<0.05 versus vehicle control group or **p<0.01 versus vehicle control group.
Blood collection and plasma hormone measurements. Blood was collected in EDTA-coated tubes (BD Microtainer®) from trunk bleeding (˜500 μL) after CO2-euthanasia for all hormone assays. The plasma was immediately separated from red blood cells by centrifugation 10 min at 1800 g, aliquoted, frozen over dry ice and stored at −80° C. […] Values are reported as mean±S.E.M. Statistics were performed using a two-tail Student's t-test, and significance levels shown in the figures are *p<0.05 versus vehicle control group or **p<0.01 versus vehicle control group.

IDE (R&D) = IDE (R&D) (Homo sapiens, UniProt P14735); assay: Yonetani-Theorell double inhibitor kinetic assay; assay type: biochemical; set-up: recombinant human IDE42-1019 (R&D Systems); purchased R&D Systems; details: 6b together with substrate mimetic Ii1
IDE (R&D), sequence (P14735 42-1019): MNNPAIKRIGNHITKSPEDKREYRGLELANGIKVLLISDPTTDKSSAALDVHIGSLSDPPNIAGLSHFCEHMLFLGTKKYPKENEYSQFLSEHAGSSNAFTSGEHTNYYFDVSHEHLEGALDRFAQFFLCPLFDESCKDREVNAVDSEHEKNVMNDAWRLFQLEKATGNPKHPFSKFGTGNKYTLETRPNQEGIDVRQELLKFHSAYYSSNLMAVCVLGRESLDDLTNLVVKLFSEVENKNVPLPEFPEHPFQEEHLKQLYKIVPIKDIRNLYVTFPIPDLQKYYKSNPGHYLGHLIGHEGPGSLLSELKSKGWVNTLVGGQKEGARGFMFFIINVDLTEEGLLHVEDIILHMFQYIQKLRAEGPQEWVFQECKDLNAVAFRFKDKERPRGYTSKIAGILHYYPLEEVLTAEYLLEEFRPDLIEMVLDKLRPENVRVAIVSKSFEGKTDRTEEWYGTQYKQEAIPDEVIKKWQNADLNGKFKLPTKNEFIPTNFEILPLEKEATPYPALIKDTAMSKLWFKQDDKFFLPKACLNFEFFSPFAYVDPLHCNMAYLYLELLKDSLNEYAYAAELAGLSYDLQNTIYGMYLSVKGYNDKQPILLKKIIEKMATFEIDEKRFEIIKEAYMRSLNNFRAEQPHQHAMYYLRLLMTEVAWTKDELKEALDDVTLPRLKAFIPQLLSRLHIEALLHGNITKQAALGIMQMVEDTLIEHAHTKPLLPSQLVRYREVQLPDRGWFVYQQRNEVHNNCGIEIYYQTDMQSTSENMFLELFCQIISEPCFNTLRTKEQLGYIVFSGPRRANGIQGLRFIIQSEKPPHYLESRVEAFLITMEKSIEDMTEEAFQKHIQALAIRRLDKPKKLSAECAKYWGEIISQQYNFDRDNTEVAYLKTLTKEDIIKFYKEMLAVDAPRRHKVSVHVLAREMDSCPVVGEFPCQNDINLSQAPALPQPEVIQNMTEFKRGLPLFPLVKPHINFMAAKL
Description: Protease assays with fluorogenic peptide substrates. […] All assay data points were obtained in duplicate.

IDE = IDE (Homo sapiens, UniProt P14735); assay: Protease assay with fluorogenic peptide substrate Mca-[…](Dnp)-OH; assay type: biochemical; set-up: recombinant human IDE42-1019 (R&D Systems); purchased R&D Systems
IDE, sequence (P14735 42-1019): as above
Experimental: All data points and error bars represent mean±SEM. Significance tests were performed using two-tail Student's t-test, and significance levels shown in the figures are p<0.05 (*) or p<0.01 (**) versus the vehicle-only control group. The in vitro selection of the DNA-templated macrocycle libraryl^16,17 used 20 μg His6-tagged mouse IDE immobilized on cobalt magnetic beads (Dynabeads, Invitrogen). IDE proteolytic activity was assayed with fluorogenic peptide Mca-[…](Dnp)-OH (R&D). IDE inhibition was confirmed using an anti-insulin antibody time-resolved FRET assay (Cysbio), and using an LCMS assay for CGRP cleavage fragments CGRP1-17 and CGRP18-37 in plasma^18. […] Protease assays with fluorogenic peptide substrates. […] (R&D). All assay data points were obtained in duplicate.

**Q.** For `NCCCC[C@@H]1NC(=O)/C=C/C(=O)N[C@H](C(N)=O)CCCCNC(=O)[C@@H](Cc2ccc(C(=O)c3ccccc3)cc2)NC(=O)[C@H](CC2CCCCC2)NC1=O` [Compound 6bK], which oral glucose tolerance [1] is on record?
**A.** significantly improved; also recorded: improved glucose tolerance

**Q.** What about the tolerability (C57BL/6J mice [2]) of the same compound?
**A.** well tolerated

**Q.** And the “remaining after incubation with liver microsome preparations” value [3]?
**A.** 78%

**Q.** And the “adverse observations after high-dose insulin” value (C57BL/6J mice [4]; 80 mg/kg i.p. plus insulin 1.0 U/kg, sacrificed at 75 min)?
**A.** lethargy and hypothermia

**Q.** What about the “plasma level of the hormone injected at the end of the procedure” value (C57BL/6J mice [4]; insulin, amylin or glucagon challenge, lean mice, vs control) of the same compound?
**A.** remained elevated

**Q.** And the “blood glucose response to amylin challenge” value (C57BL/6J mice [4]; lean mice, 80 mg/kg, amylin s.c. 250 μg/kg, vs vehicle)?
**A.** hyperglycemia

**Q.** And the “blood glucose response to glucagon challenge” value (C57BL/6J mice [4]; lean mice, 80 mg/kg, glucagon s.c. 100 μg/kg, vs vehicle)?
**A.** hyperglycemia

**Q.** And the “blood glucose response in insulin tolerance test” value (C57BL/6J mice [4]; mice, 6bK 80 mg/kg i.p. 30 min before s.c. insulin, vs vehicle)?
**A.** lower hypoglycemia

**Q.** What about the “insulin levels in insulin tolerance test” value (C57BL/6J mice [4]; mice, 6bK 80 mg/kg, vs vehicle controls, p<0.01) of the same compound?
**A.** higher

**Q.** What about the “hypoglycemic response to a high dose of insulin” value (C57BL/6J mice [4]; non-fasted male C57BL/6J mice, 80 mg/kg i.p., i.p. insulin 1.0 U/kg) of the same compound?
**A.** Increased hypoglycemic response

**Q.** What does the source list for `NC(=O)CCC1NC(=O)C=CC(=O)NC(C(N)=O)CCCCNC(=O)C(Cc2ccc(C(=O)c3ccccc3)cc2)NC(=O)C(CC2CCCCC2)NC1=O` (stereo not drawn) [Compound 6b]?
**A.** mode of double inhibition with Ii1 (IDE (R&D)): synergistic; IC50 (IDE): 60 nM

Source: patent publication US20160282364A1, “ASSAY FOR INSULIN-DEGRADING ENZYME (IDE) INHIBITORS” (PRESIDENT AND FELLOWS OF HARVARD COLLEGE, priority 2013, published 2016)
